In ChEMBL document CHEMBL5131387, “Discovery and computational studies of 2-phenyl-benzoxazole acetamide derivatives as promising P2Y14R antagonists with anti-gout potential” (Eur J Med Chem, 2022):
Calls of active or inactive are those of the source. The calls are words filed in the database; no cut-off is given here.

Experiments:
[1] = target: T1, P2Y purinoceptor 14 (Homo sapiens) (UniProt Q15391); experiment: Antagonist activity at human P2Y14R expressed in human HEK293 cells assessed as inhibition of cAMP level at 100 nM incubated for 30 mins by cAMP-glo assay relative to control; assay type: functional, cell-based
T1 sequence (whole entry): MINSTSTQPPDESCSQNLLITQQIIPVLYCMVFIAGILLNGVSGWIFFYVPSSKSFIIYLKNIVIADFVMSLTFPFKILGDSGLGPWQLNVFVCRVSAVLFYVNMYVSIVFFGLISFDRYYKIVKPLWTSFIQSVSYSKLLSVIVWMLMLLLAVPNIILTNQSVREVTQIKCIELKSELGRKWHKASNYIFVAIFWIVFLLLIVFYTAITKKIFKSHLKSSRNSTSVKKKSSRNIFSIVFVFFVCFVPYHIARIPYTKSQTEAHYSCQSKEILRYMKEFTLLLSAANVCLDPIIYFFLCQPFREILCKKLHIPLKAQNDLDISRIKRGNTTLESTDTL

[2] = target: T2, P2Y purinoceptor 14 (Homo sapiens, UniProt Q15391); experiment: Antagonist activity at human P2Y14R expressed in human HEK293 cells assessed as inhibition of cAMP level incubated for 30 mins by cAMP-glo assay; assay type: functional, cell-based
T2 sequence (Q15391 whole entry): T1 sequence (whole entry)

[3] = test system: BMDM; experiment: Antiinflammatory activity against MSU-induced C57BL/6 mouse BMDM cells assessed as inhibition of MSU-induced caspase-1 upregulation at 10 uM measured after 7 days by western blot analysis; assay type: functional, cell-based
[4] = species on record: Mus musculus; experiment: Anti-arthritis activity against MSU-induced acute gout arthritis ICR mouse model assessed as inhibition of NLRP3 inflammasome activation in foot tissue at 10 uM by microscopic analysis; assay type: functional, organism-based
[5] = test system: Mus musculus; experiment: (§1) Anti-inflammatory activity against air pouch inflammation ICR mouse model assessed as decrease in MSU-induced pyroptosis of air pouch macrophages by measuring necrotic cells at 10 uM injected subcutaneously after 24 hrs of MSU stimulation and measured after 24 hrs by caspase-1/PI staining based flow cytometry (Rvb =26.2 %); assay type: functional; set-up: scale not given: the % may be the effect or the level left; settings: route sc
[6] = test system: Mus musculus; experiment: as §1, with “late” for “necrotic”, “=14.7” for “=26.2”; assay type: functional; set-up: scale not given: the % may be the effect or the level left; settings: route sc
[7] = test system: BMDM; experiment: Antiinflammatory activity against MSU-induced C57BL/6 mouse BMDM cells assessed as inhibition of secretion of IL-1beta protein expression in supernatant at 10 uM measured after 7 days by western blot analysis; assay type: functional, cell-based
[8] = test system: BMDM; experiment: Antiinflammatory activity against MSU-induced C57BL/6 mouse BMDM cells assessed as inhibition of MSU-induced NLRP3 upregulation at 10 uM by measuring fluorescence intensity by immunofluorescence assay; assay type: functional, cell-based
[9] = test system: BMDM; experiment: Antiinflammatory activity against MSU-induced C57BL/6 mouse BMDM cells assessed as inhibition of MSU-induced ASC upregulation at 10 uM measured after 7 days by western blot analysis; assay type: functional, cell-based
[10] = test system: BMDM; experiment: Antiinflammatory activity against MSU-induced C57BL/6 mouse BMDM cells assessed as inhibition of MSU-induced ASC upregulation at 10 uM by measuring fluorescence intensity by immunofluorescence assay; assay type: functional, cell-based
[11] = test system: Mus musculus; experiment: as §1, with “early” for “necrotic”, “(reference value: 13.6” for “(Rvb =26.2”; assay type: functional; set-up: scale not given: the % may be the effect or the level left; settings: route sc
[12] = test system: BMDM; experiment: Antiinflammatory activity against MSU-induced C57BL/6 mouse BMDM cells assessed as inhibition of MSU-induced NLRP3 upregulation at 10 uM measured after 7 days by western blot analysis; assay type: functional, cell-based
[13] = species on record: Mus musculus; experiment: Anti-arthritis activity against MSU-induced acute gout arthritis ICR mouse model assessed as reduction in paw swelling at 10 uM measured at 6 to 24 hrs; assay type: functional, organism-based
[14] = test system: Mus musculus; experiment: as §1, with “viable” for “necrotic”, “(reference value: 45.5” for “(Rvb =26.2”; assay type: functional; settings: route sc
[15] = test system: BMDM; experiment: Antiinflammatory activity against MSU-induced C57BL/6 mouse BMDM cells assessed as inhibition of MSU-induced GSDMD-NT upregulation at 10 uM measured after 7 days by western blot analysis; assay type: functional, cell-based
[16] = species on record: Mus musculus; experiment: Anti-arthritis activity against MSU-induced acute gout arthritis ICR mouse model assessed as reversal of GSDMD-NT upregulation in foot tissue at 10 uM by western blot analysis; assay type: functional, organism-based

O=C(Cc1cccc(OC(F)(F)F)c1)Nc1cccc(-c2nc3cc(Cl)ccc3o2)c1
inhibition ([1]; filed as antagonist): 84%
IC50 [2]: 0.0126 µM

Cc1ccccc1CC(=O)Nc1cccc(-c2nc3ccccc3o2)c1
inhibition ([1]; filed as antagonist): 73.3%
IC50 [2]: 0.0093 µM

COc1cccc(CC(=O)Nc2cccc(-c3nc4cc(Cl)ccc4o3)c2)c1
inhibition ([1]; filed as antagonist): 82%
IC50 [2]: 0.0238 µM

CC(C)(C)c1ccc(CC(=O)Nc2cccc(-c3nc4ccccc4o3)c2)cc1
inhibition ([1]; filed as antagonist): 68%

O=C(Cc1cccc(Br)c1)Nc1cccc(-c2nc3ccccc3o2)c1
inhibition ([1]; filed as antagonist): 70.5%
IC50 [2]: 0.0254 µM

O=C(Cc1ccc2c(c1)OCO2)Nc1cccc(-c2nc3ccccc3o2)c1
inhibition ([1]; filed as antagonist): 63.3%

O=C(Cc1cccc(Cl)c1)Nc1cccc(-c2nc3cc(Cl)ccc3o2)c1
inhibition ([1]; filed as antagonist): 74.6%
IC50 [2]: 0.0134 µM

COc1ccc(CC(=O)Nc2ccc(-c3cc4ccccc4o3)cc2)cc1
inhibition ([1]; filed as antagonist): 75%

COc1ccc(CC(=O)Nc2cccc(-c3nc4ccccc4o3)c2)cc1
Activity [3]: Active
Activity [4]: Active
Activity [5]: 15%
Activity [6]: 7.81%
Activity [7]: Active
Activity [8]: Active
Activity [9]: Active
Activity [10]: Active
Activity [11]: 8.73%
Activity [12]: Active
inhibition ([1]; filed as antagonist): 98%
Activity [13]: Active
Activity [14]: 68.5%
IC50 [2]: 0.002 µM
Activity [15]: Active
Activity [16]: Active

Cc1ccc(CC(=O)Nc2ccc(-c3cc4ccccc4o3)cc2)cc1
inhibition ([1]; filed as antagonist): 72%
IC50 [2]: 0.0424 µM

O=C(Cc1cccs1)Nc1ccc(-c2cc3ccccc3o2)cc1
inhibition ([1]; filed as antagonist): 45%

CC(C)(C)c1ccc(CC(=O)Nc2ccc(-c3cc4ccccc4o3)cc2)cc1
inhibition [1]: 33%

O=C(Cc1ccc2c(c1)OCO2)Nc1cccc(-c2nc3cc(Cl)ccc3o2)c1
inhibition ([1]; filed as antagonist): 46.7%

Cc1ccc2oc(-c3cccc(NC(=O)Cc4ccc5c(c4)OCO5)c3)nc2c1
inhibition ([1]; filed as antagonist): 55.1%

O=C(Cc1ccc(C(F)(F)F)cc1)Nc1cccc(-c2nc3ccccc3o2)c1
inhibition ([1]; filed as antagonist): 83.6%
IC50 [2]: 0.0115 µM

COc1ccc(CC(=O)Nc2cccc(-c3nc4cc(Cl)ccc4o3)c2)cc1
inhibition ([1]; filed as antagonist): 89%
IC50 [2]: 0.0092 µM

Cc1ccc2oc(-c3cccc(NC(=O)Cc4ccccc4Br)c3)nc2c1
inhibition ([1]; filed as antagonist): 42.1%

COc1cccc(CC(=O)Nc2cccc(-c3nc4ccccc4o3)c2)c1
inhibition ([1]; filed as antagonist): 83%
IC50 [2]: 0.0243 µM

O=C(Cc1ccc(C(F)(F)F)cc1)Nc1cccc(-c2nc3cc(Cl)ccc3o2)c1
inhibition ([1]; filed as antagonist): 85.5%
IC50 [2]: 0.0061 µM

Cc1ccc(CC(=O)Nc2cccc(-c3nc4cc(C)ccc4o3)c2)cc1
inhibition ([1]; filed as antagonist): 72.7%
IC50 [2]: 0.0185 µM

O=C(Cc1ccccc1Cl)Nc1cccc(-c2nc3cc(Cl)ccc3o2)c1
inhibition ([1]; filed as antagonist): 68.6%

O=C(Cc1ccc(Br)cc1)Nc1ccc(-c2cc3ccccc3o2)cc1
inhibition ([1]; filed as antagonist): 47%

O=C(Cc1ccc(OC(F)(F)F)cc1)Nc1cccc(-c2nc3ccccc3o2)c1
inhibition ([1]; filed as antagonist): 91%
IC50 [2]: 0.0048 µM

O=C(Cc1ccccc1Cl)Nc1cccc(-c2nc3ccccc3o2)c1
inhibition ([1]; filed as antagonist): 67.2%

Cc1ccc2oc(-c3cccc(NC(=O)Cc4cccc(C(F)(F)F)c4)c3)nc2c1
inhibition ([1]; filed as antagonist): 62.2%

O=C(Cc1ccccc1Br)Nc1cccc(-c2nc3cc(Cl)ccc3o2)c1
inhibition ([1]; filed as antagonist): 72.6%
IC50 [2]: 0.0329 µM

COc1ccccc1CC(=O)Nc1cccc(-c2nc3ccccc3o2)c1
inhibition ([1]; filed as antagonist): 83%
IC50 [2]: 0.0122 µM

O=C(Cc1ccccc1Br)Nc1cccc(-c2nc3ccccc3o2)c1
inhibition ([1]; filed as antagonist): 68.6%

O=C(Cc1cccc(OC(F)(F)F)c1)Nc1cccc(-c2nc3ccccc3o2)c1
inhibition ([1]; filed as antagonist): 80%
IC50 [2]: 0.0162 µM

O=C(Cc1ccc(C(F)(F)F)cc1)Nc1ccc(-c2cc3ccccc3o2)cc1
inhibition ([1]; filed as antagonist): 57%

O=C(Cc1ccc2c(c1)OCO2)Nc1ccc(-c2cc3ccccc3o2)cc1
inhibition ([1]; filed as antagonist): 47%

Cc1cccc(CC(=O)Nc2cc(C)cc(-c3nc4cc(Cl)ccc4o3)c2)c1
inhibition ([1]; filed as antagonist): 86.9%
IC50 [2]: 0.0097 µM

CCCCOc1ccc(CC(=O)Nc2cccc(-c3nc4cc(Cl)ccc4o3)c2)cc1
inhibition ([1]; filed as antagonist): 68%

Cc1ccc(CC(=O)Nc2cccc(-c3nc4cc(Cl)ccc4o3)c2)cc1
inhibition ([1]; filed as antagonist): 84.6%
IC50 [2]: 0.0067 µM

Cc1cccc(CC(=O)Nc2cccc(-c3nc4ccccc4o3)c2)c1
inhibition ([1]; filed as antagonist): 78.5%
IC50 [2]: 0.0218 µM

CCCCOc1ccc(CC(=O)Nc2cccc(-c3nc4ccccc4o3)c2)cc1
inhibition ([1]; filed as antagonist): 86%
IC50 [2]: 0.0123 µM

Cc1ccc2oc(-c3cccc(NC(=O)Cc4ccc(C(F)(F)F)cc4)c3)nc2c1
inhibition ([1]; filed as antagonist): 71.3%
IC50 [2]: 0.0351 µM

CCCCOc1ccc(CC(=O)Nc2ccc(-c3cc4ccccc4o3)cc2)cc1
inhibition ([1]; filed as antagonist): 61%

Cc1ccc(CC(=O)Nc2cccc(-c3nc4ccccc4o3)c2)cc1
inhibition ([1]; filed as antagonist): 85.6%
IC50 [2]: 0.0087 µM

O=C(Cc1ccc(OC(F)(F)F)cc1)Nc1cccc(-c2nc3cc(Cl)ccc3o2)c1
inhibition ([1]; filed as antagonist): 88%
IC50 [2]: 0.0098 µM

O=C(O)c1cc(-c2ccc(C3CCNCC3)cc2)c2ccc(-c3ccc(C(F)(F)F)cc3)cc2c1 [PPTN]
Activity [3]: Active
Activity [4]: Active
Activity [5]: 18.8%
Activity [6]: 6.81%
Activity [7]: Active
Activity [8]: Active
Activity [9]: Active
Activity [10]: Active
Activity [11]: 15.4%
Activity [12]: Active
Activity [13]: Active
Activity [14]: 60%
Activity [15]: Active
Activity [16]: Active

Cc1ccc2oc(-c3cccc(NC(=O)Cc4cccc(Cl)c4)c3)nc2c1
inhibition ([1]; filed as antagonist): 44.1%

COc1ccccc1CC(=O)Nc1cccc(-c2nc3cc(Cl)ccc3o2)c1
inhibition ([1]; filed as antagonist): 81%
IC50 [2]: 0.0171 µM

O=C(Cc1cccc(C(F)(F)F)c1)Nc1cccc(-c2nc3cc(Cl)ccc3o2)c1
inhibition ([1]; filed as antagonist): 79.7%
IC50 [2]: 0.0275 µM

O=C(Cc1ccc(Cl)cc1)Nc1ccc(-c2cc3ccccc3o2)cc1
inhibition ([1]; filed as antagonist): 51%

CC(C)(C)c1ccc(CC(=O)Nc2cccc(-c3nc4cc(Cl)ccc4o3)c2)cc1
inhibition ([1]; filed as antagonist): 57%

O=C(CC1CCOCC1)Nc1ccc(-c2cc3ccccc3o2)cc1
inhibition [1]: 36%
